Key:
Format in all cases: functional, cell-based, Oocyte
[1] = target: T1, Solute carrier family 22 member 6 (Rattus norvegicus, UniProt O35956); assay: TP_TRANSPORTER: inhibition of PAH uptake in Xenopus laevis oocytes
T1 sequence (O35956 whole entry): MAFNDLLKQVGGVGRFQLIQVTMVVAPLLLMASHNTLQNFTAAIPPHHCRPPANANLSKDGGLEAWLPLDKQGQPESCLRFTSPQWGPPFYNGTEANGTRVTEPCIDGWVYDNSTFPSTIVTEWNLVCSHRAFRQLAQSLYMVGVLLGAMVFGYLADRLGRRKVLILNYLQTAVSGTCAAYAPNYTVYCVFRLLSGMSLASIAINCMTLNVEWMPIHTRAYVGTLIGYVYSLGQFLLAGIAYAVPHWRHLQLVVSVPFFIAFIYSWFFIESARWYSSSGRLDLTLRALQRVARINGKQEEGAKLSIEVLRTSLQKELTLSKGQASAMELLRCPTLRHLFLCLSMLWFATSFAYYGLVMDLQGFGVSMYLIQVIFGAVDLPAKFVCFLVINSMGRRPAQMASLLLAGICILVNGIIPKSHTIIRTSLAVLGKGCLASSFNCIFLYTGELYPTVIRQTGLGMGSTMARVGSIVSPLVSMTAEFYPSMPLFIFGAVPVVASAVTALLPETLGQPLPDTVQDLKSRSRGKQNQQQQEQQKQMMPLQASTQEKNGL

[2] = target: T2, Solute carrier family 22 member 6 (SLC22A6) (Rattus norvegicus, UniProt O35956); assay: TP_TRANSPORTER: inhibition of PAH uptake (PAH: 2 uM, […]: 1000 uM) in Xenopus laevis oocytes; details: probe PAH
T2 sequence (O35956 whole entry): T1 sequence (O35956 whole entry)

[3] = target: T2, Solute carrier family 22 member 6 (SLC22A6); assay: TP_TRANSPORTER: inhibition of PAH uptake (PAH: 2 uM, Antipyrine: 1000 uM) in Xenopus laevis oocytes; details: probe PAH
[4] = target: T2, Solute carrier family 22 member 6 (SLC22A6); assay: TP_TRANSPORTER: inhibition of PAH uptake (PAH: 2 uM, Benzydamine: 1000 uM) in Xenopus laevis oocytes; details: probe PAH
[5] = target: T2, Solute carrier family 22 member 6 (SLC22A6); assay: TP_TRANSPORTER: inhibition of PAH uptake (PAH: 2 uM, Diclofenac: 1000 uM) in Xenopus laevis oocytes; details: probe PAH
[6] = target: T2, Solute carrier family 22 member 6 (SLC22A6); assay: TP_TRANSPORTER: inhibition of PAH uptake (PAH: 2 uM, Diflunisal: 1000 uM) in Xenopus laevis oocytes; details: probe PAH
[7] = target: T2, Solute carrier family 22 member 6 (SLC22A6); assay: TP_TRANSPORTER: inhibition of PAH uptake (PAH: 2 uM, Flurbiprofen: 1000 uM) in Xenopus laevis oocytes; details: probe PAH
[8] = target: T2, Solute carrier family 22 member 6 (SLC22A6); assay: TP_TRANSPORTER: inhibition of PAH uptake (PAH: 2 uM, Ketoprofen: 1000 uM) in Xenopus laevis oocytes; details: probe PAH
[9] = target: T2, Solute carrier family 22 member 6 (SLC22A6); assay: TP_TRANSPORTER: inhibition of PAH uptake (PAH: 2 uM, Meclofenamate: 1000 uM) in Xenopus laevis oocytes; details: probe PAH
[10] = target: T2, Solute carrier family 22 member 6 (SLC22A6); assay: TP_TRANSPORTER: inhibition of PAH uptake (PAH: 2 uM, Phenylbutazone: 1000 uM) in Xenopus laevis oocytes; details: probe PAH
[11] = target: T2, Solute carrier family 22 member 6 (SLC22A6); assay: TP_TRANSPORTER: inhibition of PAH uptake (PAH: 2 uM, Tolmetin: 1000 uM) in Xenopus laevis oocytes; details: probe PAH

Question: Which Ki [1] does the source give for `CC(=O)Nc1ccc(O)cc1` [ACETAMINOPHEN] here?
Answer: Its Ki is 2100 µM.

Question: With `Cc1c(N(C)C)c(=O)n(-c2ccccc2)n1C` [AMINOPYRINE] as the compound, how does the inhibition at 1000 µM [2] read?
Answer: Its inhibition at 1000 µM is 23.8%.

Question: Which inhibition at 1000 µM [3] does the source give for `Cc1cc(=O)n(-c2ccccc2)n1C` [ANTIPYRINE] here?
Answer: The inhibition at 1000 µM was 37.8%.

Question: How did the inhibition at 1000 µM [4] turn out when `NCc1ccccc1` [BENZYLAMINE] was run?
Answer: The inhibition at 1000 µM was 60%.

Question: How did the inhibition at 1000 µM [5] turn out when `O=C(O)Cc1ccccc1Nc1c(Cl)cccc1Cl` [DICLOFENAC] was run?
Answer: The inhibition at 1000 µM was 100%.

Question: `O=C(O)c1cc(-c2ccc(F)cc2F)ccc1O` [DIFLUNISAL] was tested. Which inhibition at 1000 µM [6] did it give?
Answer: The inhibition at 1000 µM was 100%.

Question: For `CC(C(=O)O)c1ccc(-c2ccccc2)c(F)c1` (stereo unspecified) [FLURBIPROFEN], which inhibition at 1000 µM [7] is on record?
Answer: Its inhibition at 1000 µM is 100%.

Question: `COc1ccc2c(c1)c(CC(=O)O)c(C)n2C(=O)c1ccc(Cl)cc1` [INDOMETHACIN] was tested. Which Ki [1] did it give?
Answer: Its Ki is 10 µM.

Question: Which inhibition at 1000 µM [8] does the source give for `CC(C(=O)O)c1cccc(C(=O)c2ccccc2)c1` (stereo unspecified) [KETOPROFEN] here?
Answer: Its inhibition at 1000 µM is 100%.

Question: Which inhibition at 1000 µM [9] does the source give for `Cc1ccc(Cl)c(Nc2ccccc2C(=O)O)c1Cl` [MECLOFENAMIC ACID] here?
Answer: Its inhibition at 1000 µM is 99.8%.

Question: How did the Ki [1] turn out when `COc1ccc2cc([C@H](C)C(=O)O)ccc2c1` [NAPROXEN] was run?
Answer: The Ki was 2 µM.

Question: For `CCCCC1C(=O)N(c2ccccc2)N(c2ccc(O)cc2)C1=O` (stereo unspecified) [OXYPHENBUTAZONE ANHYDROUS], which Ki [1] is on record?
Answer: Its Ki is 32 µM.

Question: Which Ki [1] does the source give for `CCOc1ccc(NC(C)=O)cc1` [PHENACETIN] here?
Answer: Its Ki is 488 µM.

Question: Which inhibition at 1000 µM [10] does the source give for `CCCCC1C(=O)N(c2ccccc2)N(c2ccccc2)C1=O` [PHENYLBUTAZONE] here?
Answer: Its inhibition at 1000 µM is 98.8%.

Question: With `O=C(O)CNC(=O)c1ccccc1O` [SALICYLURIC ACID] as the compound, how does the Ki [1] read?
Answer: The Ki was 11 µM.

Question: For `Cc1ccc(C(=O)c2ccc(CC(=O)O)n2C)cc1` [TOLMETIN], which inhibition at 1000 µM [11] is on record?
Answer: Its inhibition at 1000 µM is 99.5%.
